{"source": "paper PMC4171615", "about": "“Discovery of selective inhibitors of Glutaminase-2, which inhibit mTORC1, activate autophagy and inhibit proliferation in cancer cells” (Oncotarget, 2014)", "key": {"[1]": {"biological_target": "T1, KGA_H519Q (Homo sapiens, UniProt O94925, H519Q)", "T1 construct": "a KGA cDNA fragment of 1644 bp (residues Leu123-Leu669); His-tag (N); made in house; host or cells: Escherichia coli", "T1 sequence (O94925 123-669 H519Q)": "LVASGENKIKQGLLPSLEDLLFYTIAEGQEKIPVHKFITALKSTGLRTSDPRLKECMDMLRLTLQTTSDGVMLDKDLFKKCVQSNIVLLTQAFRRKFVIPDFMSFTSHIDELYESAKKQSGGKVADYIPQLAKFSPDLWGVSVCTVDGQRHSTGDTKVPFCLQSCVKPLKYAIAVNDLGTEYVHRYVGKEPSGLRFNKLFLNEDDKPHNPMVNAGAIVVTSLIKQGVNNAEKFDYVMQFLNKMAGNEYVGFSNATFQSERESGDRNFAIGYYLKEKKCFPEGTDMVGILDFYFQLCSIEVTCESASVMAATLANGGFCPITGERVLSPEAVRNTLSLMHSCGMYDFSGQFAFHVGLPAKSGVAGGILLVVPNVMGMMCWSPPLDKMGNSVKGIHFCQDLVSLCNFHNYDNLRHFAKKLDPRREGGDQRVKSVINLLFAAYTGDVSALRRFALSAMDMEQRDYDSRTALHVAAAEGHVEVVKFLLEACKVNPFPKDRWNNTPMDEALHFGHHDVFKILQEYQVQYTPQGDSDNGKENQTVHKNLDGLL", "test": "Glutaminase activity assay, KGA mutant H519Q", "format": "biochemical", "method": "(§1) Human glutaminase activity was measured using a two-step assay as described previously. A microtiter assay format was used to facilitate the collection of multiple data points. Typically, 10 μl of compound, which was dissolved in DMSO, was added to 80 μl of an initial assay mix (0.1 mM hKGA, 0.2 mM EDTA and 50 mM Tris/acetate, pH 8.6). Samples were incubated at 25°C for 10 min and then 10 μl of 200 mM glutamine were added to the reaction mix. After adding glutamine, the reactions were incubated at 37°C for 60 min and then quenched by the addition of 10 μl of 0.6 M HCl. Subsequently, 100 μl of a second reaction mixture (3.7 units of purified bovine liver glutamate dehydrogenase, 160 mM Tris/acetate [pH 9.4], 400 mM hydrazine, 5 mM ADP and 2 mM NAD^+) was added to the stopped first reaction mixture and incubated for 30 min at 25°C. The absorbance at 340 nm was measured using a Wallac Victor2V plate reader (PerkinElmer), fitted with a 340 nm excitation filter. Sample absorbance was measured against a blank, containing no human glutaminase.\nSite-directed mutagenesis was performed on the pET28a(+)-GAB or pET28a(+)-KGA plasmids using PfuUltra II Fusion HS DNA polymerase (Agilent Technologies) to create the GAB and KGA mutants. […] The sequence alignment was compared with crystal structure of the GAC (PDB code: 3UO9) and the resulting model of GAB was analyzed using the Swiss-PDB server. […]"}, "[2]": {"biological_target": "T2, KGA_Y394L (Homo sapiens, UniProt O94925, Y394L)", "T2 construct": "a KGA cDNA fragment of 1644 bp (residues Leu123-Leu669); His-tag (N); made in house; host or cells: Escherichia coli", "T2 sequence (O94925 123-669 Y394L)": "T1 sequence (O94925 123-669 H519Q) with Y272L, Q397H", "test": "Glutaminase activity assay, KGA mutant Y394L", "format": "biochemical", "method": "as §1, with “Typically, 10 μl of compound, which was dissolved in DMSO, was added to 80 μl of an initial assay mix (0.1 mM hKGA, 0.2 mM EDTA and 50 mM Tris/acetate, pH 8.6).” left out\nSite-directed mutagenesis was performed on the pET28a(+)-GAB or pET28a(+)-KGA plasmids using PfuUltra II Fusion HS DNA polymerase (Agilent Technologies) to create the GAB and KGA mutants. The deep view program (Version 3.7) of the Swiss-MODEL server was used to generate the three dimensional structure of homologous modeled GAB. Using the integrated sequence alignment tools and structural superimposition algorithms, the target sequence was mapped on the modeling templates."}}, "note": "Changes are numbered by the printed parent chain."}
{"smiles": "CCCCCCCCCCCCCC(CC1=CC(=O)C=C(OC)C1=O)OC(C)=O", "note": "(centres unmarked) [AV-1]", "values": [{"measurement": "IC50", "setting": "[1]", "value": "1670 ± 120", "unit": "nM"}, {"measurement": "IC50", "setting": "[2]", "value": "1400 ± 200", "unit": "nM"}]}
